pKd, pKi: −log10 of the molar value. Like-named read-outs stand apart in the source and are kept apart here. Numbered stars: 1 amine (or outer) side, 2 acyl side, 3 side chain; on linkers, the order of the positions; unused ones are H or OH. Bridge positions count the residues as written; N and C are the ends. Square brackets hold non-standard residues; d marks the D form. Peptide text beside a SMILES is read from it. * marks the point of attachment. TATA = O=C(CC[*:1])N1CN(C(=O)CC[*:2])CN(C(=O)CC[*:3])C1; Biotin = O=C1N[C@H]2[C@H](CS[C@H]2CCCCC(=O)*)N1; X1 = C(c1nc(C[*:2])nc(C[*:3])n1)[*:1]; Cba = N[C@@H](CC1CCC1)C(=O)O; Sar = CNCC(=O)O
How the values were obtained:
CD16a (F Variant) = CD16a (F Variant) (Homo sapiens, UniProt P08637); assay: FcγRIII (CD16a) SPR (Method A and/or Method B), F variant; type: binding; details: for Kd: SPR Method A and/or B, Table 6B, read-out: Kd (nM) (F Variant)
CD16a (V Variant) = CD16a (V Variant) (Homo sapiens, UniProt P08637, F176V); assay: FcγRIII (CD16a) SPR (Method A and/or Method B), V variant; type: binding; details: for Kd: SPR Method A and/or B, Table 6B, read-out: Kd (nM) (V Variant)
[1] = molecular target: T1, human NKp46-his tagged protein (Homo sapiens, UniProt O76036); assay: NKp46 Fluorescence Polarization (FP) competition binding assay, tracer BCY15035
T1 construct: His tag; purchased AcroBiosystems

Fc-tagged human NKp46 = molecular target: T2, Fc-tagged human NKp46 (Homo sapiens, UniProt O76036); assay: NKp46 SPR assay (Method 1 and/or Method 2); type: binding; details: SPR Method 1 and/or Method 2, Table 3B
T2 construct: purchased ACROBiosystems NC1-H5257
How it was run: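 Method 1: biotinylated Avi-tag NKp46-Fc on streptavidin chip, peptides to 100-5000 nM top in PBS/0.05% Tween 20, 0.5% DMSO; 1:1 kinetic fit with mass transport. Method 2: NKp46-Fc captured by anti-Fc, PBS-P+ 2% DMSO; steady-state or kinetic 1:1 fit. Both 25° C, 50 μl/min, 60 s association.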

T1 sequence (O76036 22-304): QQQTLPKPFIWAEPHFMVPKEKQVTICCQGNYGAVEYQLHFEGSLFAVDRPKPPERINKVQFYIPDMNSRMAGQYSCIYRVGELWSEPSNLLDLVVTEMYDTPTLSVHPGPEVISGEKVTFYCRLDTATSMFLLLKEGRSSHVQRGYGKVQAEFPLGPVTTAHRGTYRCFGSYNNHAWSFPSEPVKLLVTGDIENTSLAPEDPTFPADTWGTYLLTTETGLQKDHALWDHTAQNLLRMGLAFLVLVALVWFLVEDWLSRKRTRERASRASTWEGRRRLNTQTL
CD16a (V Variant), sequence (P08637 17-208 F176V): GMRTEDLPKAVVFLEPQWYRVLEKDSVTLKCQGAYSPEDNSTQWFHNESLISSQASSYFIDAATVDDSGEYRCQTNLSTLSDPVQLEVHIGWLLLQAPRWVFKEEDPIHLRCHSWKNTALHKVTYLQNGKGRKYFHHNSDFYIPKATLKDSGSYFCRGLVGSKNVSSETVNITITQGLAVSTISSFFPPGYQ
T2 sequence (O76036 22-304): as the sequence (O76036 22-304) above

Row | Compound | Kd (CD16a (F Variant)) | Kd (CD16a (V Variant)) | further results
1 | CC(C)C[C@@H]1NC(=O)[C@@H]2CCCN2C(=O)[C@H](Cc2c[nH]cn2)NC(=O)[C@@H]2CSCCC(=O)N3CN(CN(C3)C(=O)CCSC[C@H](NC(=O)[C@H](C)N)C(=O)N3CCC[C@H]3C(=O)N3CCC[C@H]3C(=O)N[C@@H](C)C(=O)N[C@@H](C(C)C)C(=O)N[C@@H](Cc3ccc(O)cc3)C(=O)N2)C(=O)CCSC[C@@H](C(=O)N[C@@H](C)C(N)=O)NC(=O)[C@H](CC(=O)O)NC1=O [BCY11673, A-(SEQ ID NO: 169)-A] (H-ACPPAVYCHPLDCA-NH2; linker 2-8-13 via TATA; C-terminus assumed) | 17100 nM | 3310 nM | 
2 | CC(C)C[C@@H]1NC(=O)[C@@H]2CCCN2C(=O)[C@H](Cc2c[nH]cn2)NC(=O)[C@@H]2CSCCC(=O)N3CN(CN(C3)C(=O)CCSC[C@H](NC(=O)[C@H](C)N)C(=O)N3CCC[C@H]3C(=O)N3CCC[C@H]3C(=O)N[C@@H](CCC(=O)O)C(=O)N[C@@H](C(C)C)C(=O)N[C@@H](Cc3ccccc3)C(=O)N2)C(=O)CCSC[C@@H](C(=O)N[C@@H](C)C(N)=O)NC(=O)[C@H](CC(=O)O)NC1=O [BCY11809, A-(SEQ ID NO: 170)-A] (H-ACPPEVFCHPLDCA-NH2; linker 2-8-13 via TATA; N-terminus and C-terminus assumed) | 28600 nM | 4330 nM | 
3 | CC(C)C[C@@H]1NC(=O)[C@@H]2CCCN2C(=O)[C@H](Cc2c[nH]cn2)NC(=O)[C@@H]2CSCCC(=O)N3CN(CN(C3)C(=O)CCSC[C@H](NC(=O)[C@H](C)N)C(=O)N3CCC[C@H]3C(=O)N3CCC[C@H]3C(=O)N[C@@H](CCC(=O)O)C(=O)N[C@@H](C(C)C)C(=O)N[C@@H](Cc3ccc(O)cc3)C(=O)N2)C(=O)CCSC[C@@H](C(=O)N[C@@H](C)C(N)=O)NC(=O)[C@H](CC(=O)O)NC1=O [BCY11810, A-(SEQ ID NO: 171)-A] (H-ACPPEVYCHPLDCA-NH2; linker 2-8-13 via TATA) | 3610 nM | 832 nM | 
4 | CC(C)C[C@@H]1NC(=O)[C@@H]2CCCN2C(=O)[C@H](Cc2c[nH]cn2)NC(=O)[C@@H]2CSCCC(=O)N3CN(CN(C3)C(=O)CCSC[C@H](NC(=O)[C@H](C)N)C(=O)N3CCC[C@H]3C(=O)N3CCC[C@H]3C(=O)N[C@@H](CCC(=O)O)C(=O)N[C@@H](C(C)C)C(=O)N[C@@H](Cc3c[nH]c4ccccc34)C(=O)N2)C(=O)CCSC[C@@H](C(=O)N[C@@H](C)C(N)=O)NC(=O)[C@H](CC(=O)O)NC1=O [BCY11811, A-(SEQ ID NO: 172)-A] (H-ACPPEVWCHPLDCA-NH2; linker 2-8-13 via TATA) | 8240 nM | 1230 nM | 
5 | CC(C)C[C@@H]1NC(=O)[C@@H]2CCCN2C(=O)[C@H](Cc2c[nH]cn2)NC(=O)[C@@H]2CSCCC(=O)N3CN(CN(C3)C(=O)CCSC[C@H](NC(=O)[C@H](C)N)C(=O)N3CCC[C@H]3C(=O)N3CCC[C@H]3C(=O)N[C@@H](CCC(N)=O)C(=O)N[C@@H](C(C)C)C(=O)N[C@@H](Cc3ccc(O)cc3)C(=O)N2)C(=O)CCSC[C@@H](C(=O)N[C@@H](C)C(N)=O)NC(=O)[C@H](CC(=O)O)NC1=O [BCY11812, A-(SEQ ID NO: 173)-A] (H-ACPPQVYCHPLDCA-NH2; linker 2-8-13 via TATA; C-terminus assumed) | 11800 nM | 2400 nM | 
6 | CC(C)C[C@@H]1NC(=O)[C@@H]2CCCN2C(=O)[C@H](Cc2c[nH]cn2)NC(=O)[C@@H]2CSCCC(=O)N3CN(CN(C3)C(=O)CCSC[C@H](NC(=O)[C@H](C)N)C(=O)N3CCC[C@H]3C(=O)N3CCC[C@H]3C(=O)N[C@@H]([C@@H](C)O)C(=O)N[C@@H](C(C)C)C(=O)N[C@@H](Cc3ccc(O)cc3)C(=O)N2)C(=O)CCSC[C@@H](C(=O)N[C@@H](C)C(=O)N(C)CC(=O)N(C)CC(=O)N(C)CC(=O)N(C)CC(=O)N(C)CC(=O)N(C)CC(=O)N[C@@H](CCCCNC(=O)CCCC[C@@H]2SC[C@@H]3NC(=O)N[C@@H]32)C(N)=O)NC(=O)[C@H](CC(=O)O)NC1=O [BCY12621, A-(SEQ ID NO: 60)-A-[Sar6]-[KBiot]] |  | 1900 nM | 
7 | CC(C)C[C@@H]1NC(=O)[C@@H]2CCCN2C(=O)[C@H](Cc2c[nH]cn2)NC(=O)[C@@H]2CSCCC(=O)N3CN(CN(C3)C(=O)CCSC[C@H](NC(=O)[C@H](C)N)C(=O)N3CCC[C@H]3C(=O)N3CCC[C@H]3C(=O)N[C@@H](CCC(=O)O)C(=O)N[C@@H](C(C)C)C(=O)N[C@@H](Cc3c[nH]c4ccccc34)C(=O)N2)C(=O)CCSC[C@@H](C(=O)N[C@@H](C)C(=O)N(C)CC(=O)N(C)CC(=O)N(C)CC(=O)N(C)CC(=O)N(C)CC(=O)N(C)CC(=O)N[C@@H](CCCCNC(=O)CCCC[C@@H]2SC[C@@H]3NC(=O)N[C@@H]32)C(N)=O)NC(=O)[C@H](CC(=O)O)NC1=O [BCY12622, A-(SEQ ID NO: 174)-A-[Sar6]-[KBiot]] (H-ACPPEVWCHPLDCA[Sar][Sar][Sar][Sar][Sar][Sar]K(Biotin)-NH2; linker 2-8-13 via TATA; N-terminus assumed) | 1000 nM | 4000 nM | 
8 | CC(C)[C@@H]1NC(=O)[C@H](CO)NC(=O)[C@H](Cc2c[nH]c3ccccc23)NC(=O)[C@H](CCCNC(=N)N)NC(=O)[C@@H](NC(=O)[C@H](C)N)CSCc2nc3nc(n2)CSC[C@H](NC(=O)[C@@H]2CCCN2C(=O)[C@H](CC(=O)O)NC(=O)[C@H](CCC(=O)O)NC1=O)C(=O)N[C@H](C)C(=O)N[C@@H](C)C(=O)N[C@@H](Cc1c[nH]c2ccccc12)C(=O)N[C@H](C(=O)N[C@@H](C)C(N)=O)CSC3 [BCY14956, A-(SEQ ID NO: 178)-A] (H-ACRWSVEDPC[dA]AWCA-NH2; linker 2-10-14 via X1; N-terminus assumed) |  |  | pKd (CD16a (V Variant)): 5.67
9 | CC(C)C[C@@H]1NC(=O)[C@H](Cc2ccc(O)cc2)NC(=O)[C@H](CC(=O)O)NC(=O)[C@@H]2CCCN2C(=O)[C@H](CC2CCC2)NC(=O)[C@H](Cc2ccc(O)cc2)NC(=O)[C@@H](NC(=O)[C@H](C)N)CSCCC(=O)N2CN3CN(C2)C(=O)CCSC[C@@H](C(=O)N[C@@H](C)C(N)=O)NC(=O)[C@H](Cc2ccc(O)cc2)NC(=O)[C@H](CCC(=O)O)NC(=O)[C@H](CC(=O)O)NC(=O)CNC(=O)[C@H](CSCCC3=O)NC1=O [BCY15639, A-(SEQ ID NO: 16)-A] (H-ACY[Cba]PDYLCGDEYCA-NH2; linker 2-9-14 via TATA) |  |  | pKi [1]: 7.77
10 | CC(C)C[C@@H]1NC(=O)[C@H](Cc2ccc(O)cc2)NC(=O)[C@@H](NC(=O)[C@H](C)N)CSCCC(=O)N2CN3CN(C2)C(=O)CCSC[C@@H](C(=O)N[C@@H](C)C(N)=O)NC(=O)[C@H](Cc2ccc(O)cc2)NC(=O)[C@H](CCC(=O)O)NC(=O)[C@H](CC(=O)O)NC(=O)CNC(=O)[C@H](CSCCC3=O)NC(=O)[C@H](CC(C)(C)C)NC(=O)[C@H](Cc2c[nH]c3ccccc23)NC(=O)[C@H](CC(=O)O)NC(=O)[C@@H]2CCCN2C1=O [BCY15648, A-(SEQ ID NO: 24)-A] |  |  | pKi [1]: 5.79
11 | CC(=O)N[C@H]1CSCCC(=O)N2CN3CN(C2)C(=O)CCSC[C@H](NC(=O)[C@H](CC(C)C)NC(=O)[C@H](Cc2ccc(O)cc2)NC(=O)[C@H](CC(=O)O)NC(=O)[C@@H]2CCCN2C(=O)[C@H](CC2CCC2)NC(=O)[C@H](Cc2ccc(O)cc2)NC1=O)C(=O)N[C@H](C)C(=O)N[C@@H](CC(=O)O)C(=O)N[C@@H](CCC(=O)O)C(=O)N[C@@H](Cc1ccc(O)cc1)C(=O)N[C@H](C(N)=O)CSCCC3=O [BCY16133, Ac-(SEQ ID NO: 40)] (Ac-CY[Cba]PDYLC[dA]DEYC-NH2; linker 1-8-13 via TATA; C-terminus assumed) |  |  | pKi [1]: 8.00
12 | CC(C)C[C@@H]1NC(=O)CNC(=O)[C@H](C(C)C)NC(=O)[C@@H](N)CSCc2nc3nc(n2)CSC[C@H](NC(=O)[C@@H]2CCCN2C(=O)CNC(=O)[C@H](CC(C)C)NC(=O)[C@H](CCC(=O)O)NC(=O)[C@H](CCC(=O)O)NC1=O)C(=O)N[C@@H](CO)C(=O)N[C@@H](CC(=O)O)C(=O)N[C@@H](CC(C)C)C(=O)N[C@H](C(N)=O)CSC3 [BCY16494, (SEQ ID NO: 62)] |  |  | pKd (CD16a (F Variant)): 5.54; pKd (CD16a (V Variant)): 5.55
13 | CC[C@H](C)[C@@H]1NC(=O)CNC(=O)[C@H](Cc2c[nH]c3c(C)cccc23)NC(=O)[C@H](CCC(N)=O)NC(=O)[C@@H]2CSCCC(=O)N3CN(CN(C3)C(=O)CCSC[C@@H](C(=O)N[C@@H](C)C(N)=O)NC1=O)C(=O)CCSC[C@H](NC(=O)[C@H](C)N)C(=O)N[C@@H](CC(=O)O)C(=O)N[C@@H](CC(C)C)C(=O)N[C@@H]([C@@H](C)O)C(=O)N[C@@H]([C@@H](C)O)C(=O)N[C@@H](Cc1c[nH]cn1)C(=O)N[C@@H](CC(N)=O)C(=O)N2 [BCY19723, A-(SEQ ID NO: 161)-A] |  |  | pKd (Fc-tagged human NKp46): 5.64
14 | C[C@H](N)C(=O)N[C@H]1CSCc2nc3nc(n2)CSC[C@H](NC(=O)[C@@H]2CCCN2C(=O)[C@H](CCC(=O)O)NC(=O)[C@H](CO)NC(=O)[C@@H]2CCN2C(=O)[C@H](Cc2c[nH]cn2)NC(=O)[C@H](Cc2c[nH]c4ccccc24)NC(=O)[C@H](CCCNC(=N)N)NC1=O)C(=O)NCC(=O)N[C@@H](C)C(=O)N[C@@H](Cc1c[nH]c2ccccc12)C(=O)N[C@H](C(=O)N[C@@H](C)C(N)=O)CSC3 [BCY20382, A-(SEQ ID NO: 227)-A] |  |  | pKd (CD16a (F Variant)): 6.41
15 | C[C@H](N)C(=O)N[C@H]1CSCc2nc3nc(n2)CSC[C@H](NC(=O)[C@@H]2CCCN2C(=O)[C@H](CCC(=O)O)NC(=O)[C@H](CO)NC(=O)[C@H](Cc2ccccc2)NC(=O)[C@H](Cc2c[nH]cn2)NC(=O)[C@H](Cc2c[nH]c4ccccc24)NC(=O)[C@H](CCCNC(=N)N)NC1=O)C(=O)N[C@H](C)C(=O)N[C@@H](C)C(=O)N[C@@H](Cc1c[nH]c2ccccc12)C(=O)N[C@H](C(=O)N[C@@H](C)C(N)=O)CSC3 [BCY20392, A-(SEQ ID NO: 235)-A] (H-ACRWHFSEPC[dA]AWCA-NH2; linker 2-10-14 via X1; C-terminus assumed) |  |  | pKd (CD16a (V Variant)): 6.41

— US20240108738A1, “BICYCLIC PEPTIDE LIGANDS SPECIFIC FOR NK CELLS” (Bicycle Tx Limited, priority 2021, published 2024)
